Results published in ChEMBL document CHEMBL6109122 (J Med Chem, 2025).
Activity calls are given as the source filed them. The calls are words filed in the database; no cut-off is given here.

Legend:
[1] = Tmax in male ICR mouse at 5 mg/kg, ip measured up to 24 hrs by LC-MS/MS analysis; type: ADME, organism-based; conditions: in vivo
[2] = biological target: Non-receptor tyrosine-protein kinase TYK2 (Homo sapiens, UniProt P29597); assay: Binding affinity to TYK2 JH1 domain (unknown origin) by ADP-glo kinase assay
Jurkat [3] = assay: Effect on JAK1 protein level in human Jurkat cells at 30 nM measured after 4 hrs by DIA-Based Proteomic analysis; type: functional, cell-based
Mus musculus [4] = species: Mus musculus; assay: Anti-inflammatory activity in imiquimod-induced female BALB/c mouse psoriasis model assessed as reduction in IL-17 expression in serum by ELISA method; type: functional, organism-based
Mus musculus [5] = assay: Anti-inflammatory activity in imiquimod-induced female BALB/c mouse psoriasis model assessed as reduction in micro abscess at 5 mg/kg, ip administered daily topically for 6 days by H and E staining based analysis; type: functional, organism-based; conditions: time 6.0 day
[6] = AUC (0 to infinity) in male ICR mouse at 5 mg/kg, ip measured up to 24 hrs by LC-MS/MS analysis; type: ADME, organism-based; conditions: in vivo
[7] = AUC (0 to t) in male ICR mouse at 5 mg/kg, ip measured up to 24 hrs by LC-MS/MS analysis; type: ADME, organism-based; conditions: in vivo
[8] = biological target: T1, Protein cereblon/Non-receptor tyrosine-protein kinase TYK2 (Homo sapiens, UniProt P29597+Q96SW2); assay: PROTAC activity at CRBN/TYK2 in human Jurkat cells assessed as induction of degradation of TYK2 at 10 nM preincubated with MLN4924 for 2 hrs followed by compound addition and measured after 10 hrs by Western blot analysis; type: cell-based
Mus musculus [9] = assay: Anti-inflammatory activity in imiquimod-induced female BALB/c mouse psoriasis model assessed as reduction in acanthosis at 5 mg/kg, ip administered daily topically for 6 days by H and E staining based analysis; type: functional, organism-based; conditions: time 6.0 day
[10] = biological target: T1, Protein cereblon/Non-receptor tyrosine-protein kinase TYK2; assay: PROTAC activity at CRBN/TYK2 in human HaCaT cells assessed as induction of degradation of TYK2 measured after 10 hrs by Western blot analysis; type: cell-based; conditions: dose 1-100 nM
[11] = biological target: Tyrosine-protein kinase JAK1 (Homo sapiens, UniProt P23458); assay: Binding affinity to JAK1 (unknown origin) by ADP-glo kinase assay
[12] = biological target: T1, Protein cereblon/Non-receptor tyrosine-protein kinase TYK2; assay: PROTAC activity at CRBN/TYK2 in human Jurkat cells assessed as induction of degradation of TYK2 at 10 nM measured after 10 to 36 hrs by Western blot analysis relative to control; type: cell-based; conditions: time 10-36 hrs
[13] = biological target: Tyrosine-protein kinase JAK2 (Homo sapiens, UniProt O60674); assay: Binding affinity to JAK2 (unknown origin) by ADP-glo kinase assay
Mus musculus [14] = species: Mus musculus; assay: Anti-inflammatory activity in imiquimod-induced female BALB/c mouse psoriasis model assessed as reduction in IL-23 expression in serum by ELISA method; type: functional, organism-based
[15] = biological target: T1, Protein cereblon/Non-receptor tyrosine-protein kinase TYK2; assay: PROTAC activity at CRBN/TYK2 in human Jurkat cells assessed as induction of degradation of TYK2 at 10 nM preincubated with thalidomide for 2 hrs followed by compound addition and measured after 10 hrs by Western blot analysis; type: cell-based
[16] = biological target: T1, Protein cereblon/Non-receptor tyrosine-protein kinase TYK2; assay: PROTAC activity at CRBN/TYK2 in human Jurkat cells assessed as induction of degradation of TYK2 at 10 nM preincubated with MG132 for 2 hrs followed by compound addition and measured after 10 hrs by Western blot analysis; type: cell-based
Mus musculus [17] = assay: Anti-inflammatory activity in imiquimod-induced female BALB/c mouse psoriasis model assessed as reduction in psoriasis area severity index at 5 mg/kg, ip administered daily topically for 6 days; type: functional, organism-based; conditions: time 6.0 day
[18] = biological target: T1, Protein cereblon/Non-receptor tyrosine-protein kinase TYK2; assay: PROTAC activity at CRBN/TYK2 in human Jurkat cells assessed as induction of degradation of TYK2 at 10 nM preincubated with bortezomib for 2 hrs followed by compound addition and measured after 10 hrs by Western blot analysis; type: cell-based
[19] = biological target: T1, Protein cereblon/Non-receptor tyrosine-protein kinase TYK2; assay: PROTAC activity at CRBN/TYK2 in human Jurkat cells assessed as induction of degradation of TYK2 at 10 nM preincubated with deucravacitinib for 2 hrs followed by compound addition and measured after 10 hrs by Western blot analysis; type: cell-based
Mus musculus [20] = species: Mus musculus; assay: Anti-inflammatory activity in imiquimod-induced female BALB/c mouse psoriasis model assessed as reduction in TYK2 protein expression by Immunohistochemical analysis; type: functional, organism-based
[21] = Apparent permeability of the compound in human Caco-2 cells at 10 uM measured up to 120 min by LC-MS/MS analysis; type: ADME, cell-based
Jurkat [22] = assay: Downregulation of Aiolos level in human Jurkat cells at 30 nM measured after 4 hrs by DIA-Based Proteomic analysis; type: functional, cell-based
Jurkat [23] = assay: Effect on JAK3 protein level in human Jurkat cells at 30 nM measured after 4 hrs by DIA-Based Proteomic analysis; type: functional, cell-based
[24] = biological target: T1, Protein cereblon/Non-receptor tyrosine-protein kinase TYK2; assay: PROTAC activity at CRBN/TYK2 in human Jurkat cells assessed as induction of degradation of TYK2 at 10 nM preincubated for 24 hrs followed by compound washout and followed by incubation in compound free medium by Western blot analysis; type: cell-based
Jurkat [25] = assay: Downregulation of JAK2 protein level in human Jurkat cells at 1 to 100 nM measured after 10 hrs by Western blot analysis; type: functional, cell-based; conditions: dose 1-100 nM
[26] = Half life in male ICR mouse at 5 mg/kg, ip measured up to 24 hrs by LC-MS/MS analysis; type: ADME, organism-based; conditions: in vivo
[27] = MRT (0 to infinity) in male ICR mouse at 5 mg/kg, ip measured up to 24 hrs by LC-MS/MS analysis; type: ADME, organism-based; conditions: in vivo
Mus musculus [28] = assay: Anti-inflammatory activity in imiquimod-induced female BALB/c mouse psoriasis model assessed as reduction in IL-17 expression in skin at 15 mg/kg, ip administered daily topically for 6 days by ELISA method; type: functional, organism-based; conditions: time 6.0 day

T1 sequence (P29597 whole entry, looked up): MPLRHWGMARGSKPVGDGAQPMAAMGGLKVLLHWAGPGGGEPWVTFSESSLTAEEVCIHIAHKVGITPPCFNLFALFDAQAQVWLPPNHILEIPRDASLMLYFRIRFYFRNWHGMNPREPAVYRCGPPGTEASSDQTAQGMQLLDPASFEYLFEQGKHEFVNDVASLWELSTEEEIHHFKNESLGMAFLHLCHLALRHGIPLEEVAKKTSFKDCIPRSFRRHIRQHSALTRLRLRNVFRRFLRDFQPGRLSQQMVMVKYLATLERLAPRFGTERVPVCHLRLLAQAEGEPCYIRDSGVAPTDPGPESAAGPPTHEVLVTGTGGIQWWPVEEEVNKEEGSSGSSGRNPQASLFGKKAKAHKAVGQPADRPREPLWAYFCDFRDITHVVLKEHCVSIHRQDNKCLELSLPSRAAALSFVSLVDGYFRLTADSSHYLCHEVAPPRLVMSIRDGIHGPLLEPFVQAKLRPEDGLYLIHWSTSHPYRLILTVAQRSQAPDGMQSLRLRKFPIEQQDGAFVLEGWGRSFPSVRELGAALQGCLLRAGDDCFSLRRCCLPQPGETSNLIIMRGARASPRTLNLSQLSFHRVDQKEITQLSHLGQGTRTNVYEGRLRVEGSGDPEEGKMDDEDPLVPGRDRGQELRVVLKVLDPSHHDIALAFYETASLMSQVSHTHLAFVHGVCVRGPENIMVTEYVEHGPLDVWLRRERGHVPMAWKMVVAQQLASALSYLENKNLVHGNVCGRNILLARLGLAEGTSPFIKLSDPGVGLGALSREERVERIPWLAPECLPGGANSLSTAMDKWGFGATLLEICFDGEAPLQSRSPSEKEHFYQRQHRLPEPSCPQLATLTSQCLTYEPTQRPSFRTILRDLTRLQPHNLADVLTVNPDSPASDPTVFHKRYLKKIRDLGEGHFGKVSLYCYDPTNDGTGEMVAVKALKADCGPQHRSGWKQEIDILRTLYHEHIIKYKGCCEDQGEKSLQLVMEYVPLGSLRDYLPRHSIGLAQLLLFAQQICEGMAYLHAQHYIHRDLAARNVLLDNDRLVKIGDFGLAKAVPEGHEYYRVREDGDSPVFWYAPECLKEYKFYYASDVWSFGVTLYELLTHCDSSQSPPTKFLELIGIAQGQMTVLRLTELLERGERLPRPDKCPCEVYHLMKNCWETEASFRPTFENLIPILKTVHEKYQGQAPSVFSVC
T1 sequence (Q96SW2 whole entry, looked up): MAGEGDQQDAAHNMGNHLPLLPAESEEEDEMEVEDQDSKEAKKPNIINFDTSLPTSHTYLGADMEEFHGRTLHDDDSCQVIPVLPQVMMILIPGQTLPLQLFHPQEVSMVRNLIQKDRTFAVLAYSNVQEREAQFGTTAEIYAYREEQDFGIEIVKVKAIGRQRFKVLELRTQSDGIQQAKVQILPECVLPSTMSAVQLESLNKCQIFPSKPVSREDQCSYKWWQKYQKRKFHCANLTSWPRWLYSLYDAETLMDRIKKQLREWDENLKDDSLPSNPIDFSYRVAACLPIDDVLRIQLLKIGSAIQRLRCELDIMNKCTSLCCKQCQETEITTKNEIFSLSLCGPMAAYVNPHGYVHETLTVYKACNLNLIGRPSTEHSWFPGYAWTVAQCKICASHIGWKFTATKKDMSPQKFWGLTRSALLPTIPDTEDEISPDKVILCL
Sequence of Tyrosine-protein kinase JAK1 (P23458 whole entry): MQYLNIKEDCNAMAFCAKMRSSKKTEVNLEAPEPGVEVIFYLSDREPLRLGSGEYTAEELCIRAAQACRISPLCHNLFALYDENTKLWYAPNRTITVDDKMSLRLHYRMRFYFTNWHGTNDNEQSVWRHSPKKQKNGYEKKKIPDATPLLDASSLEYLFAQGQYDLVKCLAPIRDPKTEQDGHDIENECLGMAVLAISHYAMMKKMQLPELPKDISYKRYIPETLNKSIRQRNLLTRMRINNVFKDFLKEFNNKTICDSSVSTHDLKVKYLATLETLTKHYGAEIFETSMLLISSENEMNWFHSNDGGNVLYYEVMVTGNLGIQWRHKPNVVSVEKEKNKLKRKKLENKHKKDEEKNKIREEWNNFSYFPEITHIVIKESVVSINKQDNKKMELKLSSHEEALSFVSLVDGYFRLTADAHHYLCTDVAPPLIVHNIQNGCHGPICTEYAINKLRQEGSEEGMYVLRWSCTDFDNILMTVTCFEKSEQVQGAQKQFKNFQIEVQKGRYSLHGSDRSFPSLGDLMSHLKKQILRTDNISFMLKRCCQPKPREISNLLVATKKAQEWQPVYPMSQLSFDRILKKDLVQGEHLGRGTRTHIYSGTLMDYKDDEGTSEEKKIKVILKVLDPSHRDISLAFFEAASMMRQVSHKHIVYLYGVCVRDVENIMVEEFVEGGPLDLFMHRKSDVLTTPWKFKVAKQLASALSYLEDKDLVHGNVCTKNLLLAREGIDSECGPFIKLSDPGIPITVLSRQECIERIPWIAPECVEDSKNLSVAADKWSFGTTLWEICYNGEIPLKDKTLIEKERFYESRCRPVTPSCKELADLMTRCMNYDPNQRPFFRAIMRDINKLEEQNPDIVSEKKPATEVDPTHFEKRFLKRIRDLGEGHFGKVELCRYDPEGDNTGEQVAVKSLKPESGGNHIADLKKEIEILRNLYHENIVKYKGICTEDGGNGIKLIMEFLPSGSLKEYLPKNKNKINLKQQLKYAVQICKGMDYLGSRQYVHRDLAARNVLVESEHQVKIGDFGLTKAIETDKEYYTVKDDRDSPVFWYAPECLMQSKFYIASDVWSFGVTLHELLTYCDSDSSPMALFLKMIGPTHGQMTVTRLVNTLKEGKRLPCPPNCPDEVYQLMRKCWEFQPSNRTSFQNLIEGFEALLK
Sequence of Non-receptor tyrosine-protein kinase TYK2 (P29597 whole entry, the tested form may be a part): as the sequence (P29597 whole entry, looked up) above
Sequence of Tyrosine-protein kinase JAK2 (O60674 whole entry): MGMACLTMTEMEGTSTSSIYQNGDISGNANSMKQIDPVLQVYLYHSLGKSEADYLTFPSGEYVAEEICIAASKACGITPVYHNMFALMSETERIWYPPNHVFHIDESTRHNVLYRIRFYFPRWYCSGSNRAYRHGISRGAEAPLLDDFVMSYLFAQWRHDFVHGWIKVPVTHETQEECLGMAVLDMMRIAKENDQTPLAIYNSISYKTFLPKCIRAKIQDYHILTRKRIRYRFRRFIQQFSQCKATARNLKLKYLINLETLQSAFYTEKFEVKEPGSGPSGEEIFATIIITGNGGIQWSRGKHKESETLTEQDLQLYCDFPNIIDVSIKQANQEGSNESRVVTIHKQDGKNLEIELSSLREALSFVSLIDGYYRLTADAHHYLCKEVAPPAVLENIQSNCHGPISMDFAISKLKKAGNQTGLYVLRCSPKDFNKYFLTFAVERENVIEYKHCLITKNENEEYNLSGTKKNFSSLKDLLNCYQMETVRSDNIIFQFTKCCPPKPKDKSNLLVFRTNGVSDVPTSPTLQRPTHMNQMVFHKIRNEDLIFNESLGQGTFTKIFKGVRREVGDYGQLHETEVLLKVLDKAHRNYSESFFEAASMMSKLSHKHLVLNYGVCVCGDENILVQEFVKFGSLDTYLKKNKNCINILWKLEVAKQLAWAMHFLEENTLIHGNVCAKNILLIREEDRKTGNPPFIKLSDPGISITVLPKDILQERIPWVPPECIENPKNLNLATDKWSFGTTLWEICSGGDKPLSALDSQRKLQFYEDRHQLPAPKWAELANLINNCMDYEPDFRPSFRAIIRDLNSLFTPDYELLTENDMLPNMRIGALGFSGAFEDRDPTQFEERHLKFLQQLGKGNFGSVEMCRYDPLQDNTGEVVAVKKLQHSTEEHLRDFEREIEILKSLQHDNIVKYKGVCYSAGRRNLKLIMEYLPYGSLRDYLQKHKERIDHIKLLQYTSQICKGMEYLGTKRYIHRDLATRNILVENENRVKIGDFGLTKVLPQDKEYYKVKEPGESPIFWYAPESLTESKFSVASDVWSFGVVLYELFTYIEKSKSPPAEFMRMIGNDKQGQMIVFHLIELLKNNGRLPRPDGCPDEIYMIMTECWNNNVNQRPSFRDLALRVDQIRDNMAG

- Tmax [1]: 0.4 h
- IC50 [2]: > 10 µM
- AUC(0-inf) [6]: 4780 ng·h/mL
- AUC(0-t) at 24 h [7]: 4770 ng·h/mL
- Activity [8]: inactive
- Activity [10]: Dose-dependent-effect
- IC50 [11]: > 10 µM
- Activity [12]: 90%
- IC50 [13]: > 10 µM
- Activity [15]: inactive
- Activity [16]: inactive
- Activity [18]: inactive
- Activity [19]: inactive
- Papp at 2 h, 10 µM [21]: < 0.1 ×10⁻⁶ cm/s
- Activity [24]: inactive
- half-life [26]: 2.7 h
- MRT inf [27]: 4.2 h
Structure (SMILES): CNC(=O)c1cnc(Nc2ccc(C(=O)NC3CCC(Nc4ccc5c(c4)C(=O)N(C4CCC(=O)NC4=O)C5=O)CC3)cn2)cc1Nc1cccc(-c2ncc(F)cn2)c1OC (stereo not drawn)
- Activity (Jurkat [3]): inactive
- Activity (Mus musculus [4]): Active
- Activity (Mus musculus [5]): Active
- Activity (Mus musculus [9]): Active
- Activity (Mus musculus [14]): Active
- Activity (Mus musculus [17]): Active
- Activity (Mus musculus [20]): Active
- Activity (Jurkat [22]): inactive
- Activity (Jurkat [23]): inactive
- Activity (Jurkat [25]): Active
- Activity (Mus musculus [28]): Active
